Values quoted from earlier work in patent US20110136769A1, “METHOD OF TREATING MEN WITH TE[…] 5ALPHA-REDUCTASE INHIBITOR” (Merck Sharp & Dohme Corp., priority 2007, published 2011).

How the values were obtained:
[1] = molecular target: T1, 5α-reductase type 2 (Homo sapiens, UniProt P31213); conditions: background statement
T1 construct: Samples of human tissue were pulverized using a freezer mill and homogenized; from tissue; host or cells: human prostate (crude nuclear pellet of homogenate)
T1 sequence (P31213 1-254): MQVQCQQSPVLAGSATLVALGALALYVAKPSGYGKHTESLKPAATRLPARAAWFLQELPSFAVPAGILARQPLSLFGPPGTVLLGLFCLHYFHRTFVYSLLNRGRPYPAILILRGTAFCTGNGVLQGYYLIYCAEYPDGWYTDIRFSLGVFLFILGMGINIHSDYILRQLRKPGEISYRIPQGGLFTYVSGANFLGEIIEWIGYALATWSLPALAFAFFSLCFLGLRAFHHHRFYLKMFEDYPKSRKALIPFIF

[2] = molecular target: T2, 5α-reductase type 1 (Homo sapiens, UniProt P18405); conditions: background statement
T2 construct: Samples of human tissue were pulverized using a freezer mill and homogenized; from tissue; host or cells: human scalp (crude nuclear pellet of homogenate)
T2 sequence (P18405 1-259): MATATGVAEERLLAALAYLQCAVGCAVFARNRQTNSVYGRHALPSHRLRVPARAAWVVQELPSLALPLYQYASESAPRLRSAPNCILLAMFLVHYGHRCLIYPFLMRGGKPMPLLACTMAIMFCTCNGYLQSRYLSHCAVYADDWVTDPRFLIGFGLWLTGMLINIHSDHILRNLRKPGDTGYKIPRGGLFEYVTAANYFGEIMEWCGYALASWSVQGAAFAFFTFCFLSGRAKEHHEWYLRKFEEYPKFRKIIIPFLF

CC(C)(C)NC(=O)[C@H]1CCC2C3CCC4NC(=O)C=C[C@]4(C)C3CC[C@@]21C (stereo partly drawn) [Finasteride, 17β-(N-tert-butylcarbamoyl)-3-oxo-4-aza-5α-androst-1-en-3-one]
inhibition of the human type 2 enzyme [1]: potent inhibitor

C[C@]12C=CC(=O)N[C@@H]1CC[C@@H]1[C@@H]2CC[C@]2(C)[C@@H](C(=O)Nc3cc(C(F)(F)F)ccc3C(F)(F)F)CC[C@@H]12 [dutasteride]
inhibition of the human type 2 enzyme [1]: potent inhibitors | inhibition of 5α-reductase type 1 [2]: potent inhibitors
